Source: patent US12529029B2, “Cell culture medium comprising small peptides” (LIFE TECHNOLOGIES CORPORATION, priority 2010, dated 2026)
≈ marks a conversion by molar mass, not a printed value. Where a SMILES comes first, the peptide text is derived from it. Bridges are numbered along the chain shown (N, C = ends). Roman numbers before positions name the chains, in order.

Legend:
[1] = 25° C., by way of comparison; cited from earlier work
[2] = physchem; format: physicochemical
Protocol: An exemplary cell culture medium containing the dipeptides alanyl tyrosine (AlaTyr) and alanyl cysteine (which forms a disulfide dimer, [AlaCys]2) was prepared. Specifically, the dipeptides, alanyl tyrosine and alanyl cysteine were added as dry powder to an aqueous basal cell culture medium containing glucose and a mixture of concentrated amino acids and mixed until dissolved. […].

Row | solubility [2] [mg/mL] | SMILES | solubility in water [1]
1 |  | N[C@@H](CSSC[C@H](N)C(=O)O)C(=O)O [L-Cystine] | about 0.11 g/L
2 | ~15.4 (≈ 61 mM) | C[C@H](N)C(=O)N[C@@H](Cc1ccc(O)cc1)C(=O)O [AlaTyr, alanyl tyrosine] (H-Ala-Tyr-OH) | 
3 | ~8.7 (≈ 22.7 mM) | C[C@H](N)C(=O)N[C@@H](CSSC[C@H](NC(=O)[C@H](C)N)C(=O)O)C(=O)O [[AlaCys]2 dimer, N,N′-di-L-Alanyl-L-Cystine] (I: H-Ala-Cys-OH / II: H-Ala-Cys-OH; disulfide I:2-II:2) | 
